The source of these data is patent US20090142363A1, “CYTOTOXIC T-CELL EPITOPE PEPTIDE AND USE THEREOF” (priority 2005, published 2009).

Assay [1] concerns PBMCs of healthy adults reactive to the anti-HLA-A*24 antibody. Briefly: Induction of specific CTLs from PBMCs, method for quantifying cells producing intracellular IFNγ. The assay is classed as cell-based, human. The arrangement: key to specific CTL induction, cytokine quantification method: ∘: “open circle” indicates that the use of a candidate peptide enabled specific CTLs to be induced; x: “cross” indicates that specific CTLs was unable to be induced. To be noted: for peptide-specific cytokine production in PBMCs derived from ten people with HLA-A*24 molecule: summary of Table 2. The method, then: This induction method induces CTLs by adding peptides to culture media of PBMCs. Peptides are presented on antigen-presenting cells present among PBMCs, such as dendritic cells, B cells, macrophages, and certain types of T cells, whereby CTL precursor cells in PBMCs are stimulated to proliferate.
Peripheral blood collected from healthy adults that were reactive to the anti-HLA-A*24 antibody was centrifuged at 3,000 rpm for 5 to 10 minutes. The resulting supernatant plasma was collected. The non-plasma portion was processed according to a conventional method to isolate PBMCs. The characteristic of the present method is the addition of several % of plasma to an induction medium. In the present invention, a favorable result was obtained by adding 5% plasma. The medium is prepared by adding appropriate additives and antibiotics to a medium commonly used for cell culture. The CTL induction medium used in the present invention was RPMI1640 Hepes modify (Sigam) supplemented with 2-mercapotethanol, L-glutamine, and the antibiotics streptomycin and penicillin. In addition to these, insulin, transferrin, selenious acid, pyruvic acid, human serum albumin, solution of non-essential amino acids, and the like may be added. 1 to 3×10^6 PBMCs were suspended in 1 to 2.5 ml of the culture medium. A candidate peptide was added to the cells at a concentration of 1 to 20 μg/ml. The concentration of peptide can be altered depending on the solubility of the peptide. The peptide was added at 10 μg/ml. After two days, IL-2 was added at a final concentration of 20 to 100 U/ml. Round-bottomed culture dishes that allow the exchange of carbon dioxide gas are preferably used to co-culture PBMCs with peptides. In the context of the present invention, 14-ml round-bottomed polypropylene tubes (Becton Dikinson) or 96-well U-bottomed cell culture microtest plates (Becton Dikinson) were used. The adenovirus-specific CTLs were confirmed after about two and four weeks of culture. The cells were stimulated again with the peptide at 10 μg/ml after about two weeks of culture. When the induction of adenovirus-specific CTLs was confirmed, the cells were further stimulated with peptide-pulsed antigen-presenting cells to establish CTL lines.
Approximately 1/10 to all of the cells induced by the above-described method were transferred into 96-well U-bottomed cell culture microtest plates, and the peptide used for the induction was added thereto at a final concentration of 0.01 to 0.05 μg/ml. Then, an intracellular protein transport inhibitor (for example, brefeldin A, monensin, or such) was added, and the cells were cultured in a 5% CO2 incubator at 37° C. for 5 to 16 hours. After culture, the cells were washed, and phycoerythrin (PE)-labeled MHC-tetramer reagent and phycoerythrin-Cy5(PC5)-labeled CD8 antibody (Beckman Coulter) were added thereto. The resulting mixture was allowed to stand at room temperature for 15 to 30 minutes. After washing, the cells were fixed with 4% formaldehyde at 4° C. for 15 minutes and washed with an excess amount of washing solution. After membrane permeabilization treatment with 0.1% saponin, an FITC-labeled anti-IFNγ antibody (Beckman Coulter) was added, and reacted at room temperature for 15 to 30 minutes. After washing, the proportion of IFNγ-positive cells in T cells or MHC-tetramer reagent-positive cells was determined using a flow cytometer.
PBMCs derived from ten people with HLA-A*24 molecule were tested using 10 types of peptides. […] Thus, these six types of candidate epitope peptides serve as adenovirus-specific CTL epitope peptides. Since the adenovirus-specific CTL epitope peptides have the HLA-A*24-binding motif, they are likely to be HLA-A*2402-restricted epitope peptides, which are carried by 60% or more of the Japanese people. In the context of the results described above, MHC-tetramer reagents were synthesized using five types of epitope peptides, and their utility was tested.

The subject of assay [2] is CTLs with target cells expressing HLA-A*24 molecules. Briefly: Confirmation of CTLs by ELISPOT assay (IFNγ spots). Type of assay: cell-based, human. To be noted: FIG. 4. The method, then: A commercially available ELISPOT assay kit (for example, MABTECH Co.) may be purchased, and the assay can be performed according to the manufacturer's protocol. Alternatively, the assay may also be carried out by the following procedure. 96-well MultiScreen-HA plates (Millipore Co.) were coated with an anti-IFNγ monoclonal antibody (R&D Systems Co.) at 4° C. for overnight. Each well was washed with PBS. Target cells were plated into each well. Any cells expressing HLA-A*24 molecules on their surface can be used as the target cells. For example, T2-A24, a cultured cell which a gene of HLA-A*24 molecule is introduced into a 174CEM.T2 cell, can be used. Alternatively, EBV-infected LCLs expressing HLA-A*24 molecules on their surface can be used as the target cells. These target cells were added into each well with a candidate peptide for adenovirus-specific CTL epitopes or a negative control (HIV) peptide. The mixtures were allowed to stand at room temperature for 30 minutes. Then, an adequate number of CTLs were added, and the mixtures were cultured in a 5% CO2 incubator at 37° C. for 20 hours. CTLs that responded to the candidate epitope peptide secreted IFNγ during this culture period, and the IFNγ bound to the anti-IFNγ monoclonal antibody that was coated on the plates. After culturing was completed, the plates were washed with PBS containing 0.05% Tween-20. Then, an anti-IFNγ polyclonal antibody (Genzyme Co.) and peroxidase-labeled goat anti-rabbit IgG serum were allowed to react in this order at room temperature for 90 minutes each. Furthermore, 3-amino-9-ethylcarbasole (Sigma), a peroxidase substrate, and 0.1M sodium acetate buffer (pH 5.0) containing 0.015% H2O2 was added to each well, and the plates were incubated at room temperature for 40 minutes to visualize the IFNγ spots. The spots were counted under a stereomicroscope.
The spots were counted under a stereomicroscope, and were plotted on a graph.

No end group written: not given here.

Take LYANSAHAL: the “specific CTL induction, cytokine quantification method” value in assay [1] (donor ID *24-1) is “x”; in assay [1] (donor ID *24-2) it was “x”; in assay [1] (donor ID *24-3) it was “∘”; in assay [1] (donor ID *24-5), “x”; in assay [1] (donor ID *24-8), “∘”; in assay [1] (donor ID *24-10), “x”. The “specific CTL induction, cytokine quantification method” value in assay [1] (donor ID *24-11), in assay [1] (donor ID *24-12), in assay [1] (donor ID *24-13) and in assay [1] (donor ID *24-14) was “x” in each case. The “specific CTL induction confirmed by CD8-positive, IFNγ-positive cells versus HIV peptide” value in assay [1] (donor ID*24-8, FIG. 3a-d) is “induced specific CTLs”. For the same sequence, the “peptide-specific cytokine production in PBMCs derived from ten people with HLA-A*24 molecule” value in assay [1] is “induce cytokine production in a peptide-specific manner”. For the same sequence, the “IFNγ spots in ELISPOT assay compared with the negative control (HIV) peptide” value in assay [2] is recorded as “IFNγ spots were observed”.
Take LYSNVALYL: the “CD8-positive, IFNγ-positive (producing) cells in UR” value in assay [1] (donor *24-12, restimulation with the same peptide as used in the induction, % in PBMCs) is recorded as 2.95%. For the same sequence, the “specific CTL induction, cytokine quantification method” value in assay [1] (donor ID *24-1), in assay [1] (donor ID *24-2), in assay [1] (donor ID *24-3), in assay [1] (donor ID *24-5), in assay [1] (donor ID *24-8) and in assay [1] (donor ID *24-10) was “x” throughout. Besides, the “specific CTL induction, cytokine quantification method” value in assay [1] (donor ID *24-11) is recorded as “x”; in assay [1] (donor ID *24-12) it was “∘”; in assay [1] (donor ID *24-13), “∘”; in assay [1] (donor ID *24-14) it was “x”. Moreover, the “specific CTL induction confirmed by CD8-positive, IFNγ-positive cells versus HIV peptide” value in assay [1] (donor ID*24-12, FIG. 3e-h) was “specific CTL induction was confirmed”. Moreover, in assay [1], the “peptide-specific cytokine production in PBMCs derived from ten people with HLA-A*24 molecule” value is recorded as “induce cytokine production in a peptide-specific manner”. In assay [1] (ten persons tested), the “number of persons with peptide-specific IFNγ production / CTL induction” value is reported as “two of the ten persons”. Also, the “IFNγ spots in ELISPOT assay compared with the negative control (HIV) peptide” value in assay [2] was “IFNγ spots were observed”.
